In assay [1] the test system is BT-549. The experiment in a line: MTS anti-proliferative assay, BT-549. It counts as cell-based. To be noted: Homo sapiens, 168 h, BT-549, TNBC, basal B, treatment for 7 days. The protocol: (§1) The anti-proliferative effects and IC50 values of the compounds in the BC cell line panel were determined by MTS assay.
(§2) The cells, except Sk-Br-3, AU565 and BT-474 were maintained in a mixture of Dulbecco's modified Eagle's medium and Ham's F12 medium (1:1) (DMEM/F12) without phenol red supplemented with 5% fetal bovine serum (FBS) and 1× antibiotic-antimycotic (100 U/mL penicillin G sodium, 100 μg/mL streptomycin sulfate and 0.25 μg/mL amphotericin B) and were plated separately in flasks in a humidified incubator (5% CO2: 95% air, 37° C.). The media used for Sk-Br-3, AU565 and BT-474 cell lines was described in (1) Brueggemeier et al., J. Steroid Biochem. Mol. Biol., 2005; 95:129-136; and (2) Diaz-Cruz et al., J. Clin. Endocrinol. Metab., 2005; 90:2563-2570. The media were changed every 2-days. When the cells grew to about 80% confluence, cells were washed twice with calcium- and magnesium-free phosphate-buffered saline (PBS, pH 7.4), and then trypsinized with 0.05% trypsin-5.3 mm EDTA. The trypsinization was stopped by addition of culture medium with 5% FBS. After centrifugation, the dissociated cells were resuspended in the same medium and subcultured into 75-cm^2 culture flasks at a ratio of 1:5 flasks.
(§3) The BC cells were seeded at the density of 1,000 cells per well (100 μL) into 96 well plate in DMEM/F-12 (1:1), supplemented with 5% (v/v) FCS and incubated overnight at 37° C. Test compounds are solubilized in dimethyl sulfoxide (DMSO), diluted in cell culture medium to a range of final assay concentrations of 1 nM to 10 μM, added to cells and incubated for 7 days at 37° C. The medium including the test compound are refreshed at days 3 and 5. The MTS assay are carried out by using the CellTiter 96® AQueous One Solution Cell Proliferation Assay kit following the manufacturer's instruction.
(Tetrazolium assays rely on reduction of a dye to a coloured formazan, in cell work by metabolically active cells.)

Assay [2] relates to Cal-51 cells. The assay can be described thus: Spindle checkpoint assay, Cal-51. It counts as cell-based. To be noted: for abrogating the spindle checkpoint: Cal-51, at 1 μM. The procedure: For spindle checkpoint assays, S-phase arrested cells treated with candidate compounds were released into medium containing the spindle poison nocodazole. Because the spindle checkpoint prevents the metaphase to anaphase transition in the presence of spindle damage, compounds that block the spindle checkpoint will lead to a decreased number of mitotic cells in the presence of nocodazole. Briefly, cells were arrested in S-phase with a 24 hour treatment with 2 mM thymidine. Three hours after removing thymidine to release cells from S-phase arrest, nocodazole was added at 200 ng/mL. After 12 hours in the presence of nocodazole, cells were fixed and stained with mouse anti-cyclin B and Hoechst, and the percentage of cyclin B positive cells with condensed chromosomes was determined in triplicate samples.

The subject of assay [3] is BT-20. The experiment in a line: MTS anti-proliferative assay, BT-20. It counts as cell-based. Conditions: Homo sapiens, 168 h, BT-20, TNBC, basal A, treatment for 7 days. The procedure: as §1, §2, §3
Assay [4] concerns MDA-MB-468 cells. The assay can be described thus: Centriole assembly / centrosome amplification assay, MDA-MB-468. To be noted: compared to IN-1, AZ3146 and Compound 5. It counts as cell-based. The protocol:
For these cell biology assays, cells were plated onto poly-L-lysine coated coverslips in 24 well dishes using the medium and growth conditions described above, but using medium containing phenol red. At 24 hours after plating, compounds (or the equivalent amount of DMSO) were added to individual wells at various concentrations. Cells were incubated for 24 hours at 37° C. BrdU was added during the last 4 hours of the incubation, after which cells were fixed in pre-chilled methanol at −20 OC for 10 minutes, stained with centrosome markers, then treated with acid to denature chromosomal DNA prior to staining for BrdU. To assess centriole biogenesis, centriole number was determined for triplicate samples in cells that had entered S-phase as judged by incorporation of BrdU. Primary antibodies used were mouse anti-γTubulin (pericentriolar material) and rabbit anti-Centrin 2 (centrioles). Secondary antibodies used were Alexa594-conjugated donkey anti-mouse and Alexa488-conjugated donkey anti-rabbit.
For centriole assembly assays, Cal-51 and MDA-MB-468 cells were treated with candidate compounds prior to a short pulse of BrdU. Because the centriole pair is replicated at the G1/S transition, compounds that block centrosome assembly will lead to an increased number of BrdU-positive cells with two centrioles. […]

Assay [5] relates to CAMA-1. The experiment in a line: MTS anti-proliferative assay, CAMA-1. It counts as cell-based. To be noted: Homo sapiens, 168 h, CAMA-1, luminal, treatment for 7 days. The procedure:
as §1, §2, §3

Assay [6] relates to MDA-MB-453. The experiment in a line: MTS anti-proliferative assay, MDA-MB-453. It counts as cell-based. Conditions: Homo sapiens, 168 h, MDA-MB-453, luminal A, treatment for 7 days. The procedure: as §1
The media were changed every 2-days. When the cells grew to about 80% confluence, cells were washed twice with calcium- and magnesium-free phosphate-buffered saline (PBS, pH 7.4), and then trypsinized with 0.05% trypsin-5.3 mm EDTA. The trypsinization was stopped by addition of culture medium with 5% FBS.
as §3

For assay [7], the system named is Cal-51 cells (tumor). The assay can be described thus: Tumor progression in athymic nude mice. It counts as in vivo. Conditions: Cal-51 tumors, i.p. injection in DMSO, five-week study. The procedure:
Compound 13 in DMSO was administered to the test mice by i.p. injection. Cal-51 cells were injected to induce tumor growth. At the end of the five-week study, the mice were sacrificed, and the tumors were measured, dissected and weighed (FIGS. 6 and 7).

Assay [8] concerns the target twenty common kinases. The assay can be described thus: Kinase profiling assays for twenty common kinases. It counts as biochemical. The procedure: (§4) Briefly, the inhibition potency to Mps1 kinase activity was determined by measurement of radioactive phosphotransfer to the specific substrate, Cetn2. The autophosphorylation of Mps1 was also measured using the same method without adding Cetn2 in the kinase assay reaction mixture. […] Mps1 activity was measured using 0.25 ng of recombinant GST-Mps1 protein in 50 mM TrisCl pH 7.5, 0.5 mM DTT, 10 mM MgCl2, 300 μM recombinant Cetn2 and 3 μM ^32P-γ-ATP. […] ATP was added to initiate the kinase assay, incubated at 30° C. for 30 min and five-fold volume of […] was added to quench the reaction. The whole reaction was immobilized on Immobilon-P^SQ PVDF membrane (Millipore) using a dot blotter connected to vacuum line. Each well was washed three times with 300 μL of PBS. The membrane was further washed by soaking in PBS, dried, and exposed overnight to a Phosphor Screen. The image was acquired by the Storm imaging system (Amersham). The density analyses were performed by using Image-J program, and kinetic constants were calculated by GraphPad Prism 5 software. Commercial kinase profiling assays were performed by Reaction Biology Corp., Malvern, Pa.

The target of assay [9] is Mps1 (autophosphorylation) (Homo sapiens, UniProt P33981). The experiment in a line: biochemical. The protocol: as §4
In assay [10] the target is JNK1 (Homo sapiens, UniProt P45983). Conditions: read-out: IC50 JNK1; kinase profiling. The protocol: as §4
Sequence of JNK1 (P45983 whole entry): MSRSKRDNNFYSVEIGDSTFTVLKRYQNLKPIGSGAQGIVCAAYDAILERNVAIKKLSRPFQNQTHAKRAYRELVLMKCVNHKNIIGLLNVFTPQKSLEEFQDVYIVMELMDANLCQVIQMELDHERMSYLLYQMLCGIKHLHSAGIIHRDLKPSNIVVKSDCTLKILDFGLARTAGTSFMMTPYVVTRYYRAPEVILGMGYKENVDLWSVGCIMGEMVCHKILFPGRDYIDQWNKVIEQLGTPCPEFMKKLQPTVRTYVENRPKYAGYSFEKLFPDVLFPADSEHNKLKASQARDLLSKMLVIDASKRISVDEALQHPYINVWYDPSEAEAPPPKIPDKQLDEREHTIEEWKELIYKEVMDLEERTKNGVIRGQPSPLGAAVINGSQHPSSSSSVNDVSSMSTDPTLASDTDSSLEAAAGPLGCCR

Sequence of Mps1 (autophosphorylation) (P33981 whole entry): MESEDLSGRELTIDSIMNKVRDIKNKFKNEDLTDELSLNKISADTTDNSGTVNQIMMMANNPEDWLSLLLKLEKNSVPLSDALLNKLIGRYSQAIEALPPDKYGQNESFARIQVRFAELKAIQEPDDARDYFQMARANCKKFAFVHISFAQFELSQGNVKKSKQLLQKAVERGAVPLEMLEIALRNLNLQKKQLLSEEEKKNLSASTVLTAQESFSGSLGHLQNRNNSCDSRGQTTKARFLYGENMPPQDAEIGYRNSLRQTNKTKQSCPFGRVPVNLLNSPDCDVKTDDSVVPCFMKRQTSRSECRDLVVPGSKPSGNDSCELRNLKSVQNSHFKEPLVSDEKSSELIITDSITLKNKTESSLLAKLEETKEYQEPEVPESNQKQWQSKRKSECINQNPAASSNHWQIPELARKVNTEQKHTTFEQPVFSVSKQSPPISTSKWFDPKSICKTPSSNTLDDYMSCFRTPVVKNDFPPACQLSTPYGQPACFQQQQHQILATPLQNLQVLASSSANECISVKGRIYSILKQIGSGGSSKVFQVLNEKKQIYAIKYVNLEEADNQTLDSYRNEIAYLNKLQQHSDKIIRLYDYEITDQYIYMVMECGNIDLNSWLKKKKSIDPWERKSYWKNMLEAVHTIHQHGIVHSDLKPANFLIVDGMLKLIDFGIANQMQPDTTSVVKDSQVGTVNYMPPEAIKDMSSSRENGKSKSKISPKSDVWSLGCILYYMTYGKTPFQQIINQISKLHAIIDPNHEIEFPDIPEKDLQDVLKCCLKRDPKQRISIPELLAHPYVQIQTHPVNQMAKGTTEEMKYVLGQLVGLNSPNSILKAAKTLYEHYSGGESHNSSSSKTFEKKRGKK

Regarding `COc1cc(N2CCC(O)CC2)ccc1Nc1nc(Nc2ccccc2S(=O)(=O)C(C)C)c2cc[nH]c2n1` [Compound 1, 1-(4-((4-((2-(isopropylsulfonyl)phenyl)amino)-7H-pyrrolo[2,3-d]pyrimidin-2-yl)amino)-3-methoxyphenyl)piperidin-4-ol], the IC50 (as a rule, the concentration that gives 50% inhibition) in assay [1] is 810 nM; in [3] it was 350 nM; in assay [5] it was 360 nM; in [6], 820 nM. Moreover, the “abrogating the spindle checkpoint” value in assay [2] is reported as “more effective than IN-1, AZ3146, or compound 5”. In addition, in assay [2] (Cal-51, nocodazole 200 ng/mL, 12 hours), the “ability of cells to arrest in response to nocodazole” value is reported as “dose-dependent reduction”. Moreover, the “percentage of BrdU-positive cells that have just two centrioles” value in [4] is listed as “increases”. The “percentage of cells with more than four centrioles” value in [4] was “decreases”.

Turning to `COc1cc(N2CCOCC2)ccc1Nc1nc(NC2CCCCC2)c2cc[nH]c2n1` [Compound 13, N4-cyclohexyl-N2-(2-methoxy-4-morpholinophenyl)-7H-pyrrolo[2,3-d]pyrimidine-2,4-diamine], the tumor progression entry in assay [7] is “slowed the tumor progression”. In addition, the “kinases inhibited in profiling of twenty common kinases” value in [8] was “only two kinases”. In addition, the “abrogating the spindle checkpoint” value in assay [2] is reported as “most effective”. Besides, the IC50 in assay [3] was determined as 570 nM; in assay [5] it was 1100 nM; in [9] it was 312 nM; in [10], 1670 nM.

The values above are taken from patent US10611765B2, “Pyrrolopyrimidine derivatives as Mps1/TTK kinase inhibitors” (Ohio State Innovation Foundation, priority 2014, dated 2020).
